In paper PMC4864240, “Biotype Characterization, Developmental Profiling, Insecticide Response and Binding Property of Bemisia tabaci Chemosensory Proteins: Role of CSP in Insect Defense” (PLoS ONE, 2016):
Like-named read-outs stand apart in the source and are kept apart here.

Experiments:
Test in all cases: biochemical
Format in all cases: binding
[1] = target: T1, BtabCSP2 (Bemisia tabaci, UniProt H6UKS9); conditions: for IC50: displacement of 1-NPN
T1 sequence (H6UKS9 22-131): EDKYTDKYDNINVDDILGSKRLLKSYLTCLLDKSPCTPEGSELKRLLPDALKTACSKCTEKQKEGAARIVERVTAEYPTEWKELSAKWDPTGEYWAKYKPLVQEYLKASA
Protocol: (§1) Protein-ligand binding affinity was determined for the three recombinant proteins. Emission fluorescence spectra were recorded on a Jasco FP-6500 Series fluorescence spectrofluorometer. […] Fluorescence was measured using an exciting wavelength of 337 nm. Emission spectrum was recorded between 350 and 500 nm.

[2] = target: T2, BtabCSP1 (Bemisia tabaci, UniProt D6N3A3)
T2 sequence (D6N3A3 20-126): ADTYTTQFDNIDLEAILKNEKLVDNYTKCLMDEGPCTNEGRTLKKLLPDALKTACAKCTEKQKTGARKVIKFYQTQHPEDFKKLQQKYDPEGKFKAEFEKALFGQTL
Protocol: as §1

[3] = target: T3, BtabCSP3 (Bemisia tabaci, UniProt A0A097GUB5); conditions: for IC50: displacement of 1-NPN
T3 sequence (A0A097GUB5 21-138): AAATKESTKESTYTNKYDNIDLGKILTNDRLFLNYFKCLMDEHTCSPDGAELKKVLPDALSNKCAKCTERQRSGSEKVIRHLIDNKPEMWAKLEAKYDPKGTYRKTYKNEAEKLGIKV
Protocol: as §1

[4] = u.d. = binding constant not calculated, IC50>100 μM, read-out: BtabCSP2 Ki (u.d.)
[5] = displacement of 1-NPN, read-out: IC50, BtabCSP1
[6] = u.d. = binding constant not calculated, IC50>100 μM, read-out: BtabCSP1 Ki (u.d.)
[7] = u.d. = binding constant not calculated, IC50>100 μM, read-out: BtabCSP3 Ki (u.d.)
[8] = competitive binding vs 1-NPN, three replicates ± SD, read-out: BtabCSP1 Ki
[9] = BtabCSP1 Ki (u.d.), u.d. = binding constant not calculated, IC50>100 μM
[10] = BtabCSP1 Ki, competitive binding vs 1-NPN, three replicates ± SD
[11] = competitive binding vs 1-NPN, three replicates ± SD, read-out: BtabCSP3 Ki

Row | Compound | Ki [1, 4] [µM] | Ki [2, 6] [µM] | Ki [3, 7] [µM] | further results
1 | C=CC(C)(O)CC/C=C(\C)CCC=C(C)C (racemic) [(+/-)Nerolidol] | > 100 | > 100 | > 100 | IC50 [2, 5]: 14.6 to 95.1 µM
2 | C=C(C)C1CC=C(C)[C@@H](O)C1 (single isomer, unassigned; (-)) [(-)-Carveol] | > 100 | > 100 | > 100 | –
3 | CC12CCC(CC1)C(C)(C)O2 [1,8-Cineole] | > 100 | > 100 | > 100 | –
4 | CCCCCCCO [1-Heptanol] | > 100 | > 100 | > 100 | –
5 | CCCCCCO [1-Hexanol] | > 100 | – | > 100 | Ki [2, 8]: 46.8 ± 1.37 µM; IC50 [2, 5]: 14.6 to 95.1 µM
6 | c1ccc(Nc2cccc3ccccc23)cc1 [1-NPN] | – | – | – | Kd ([1]; direct titration, Scatchard plot, read-out: binding constant of 1-NPN to CSP2): 20.8 µM; Kd ([2]; direct titration, Scatchard plot, read-out: binding constant of 1-NPN to CSP1): 11.7 µM; Kd ([3]; direct titration, Scatchard plot, read-out: binding constant of 1-NPN to CSP3): 15.3 µM
7 | CC(=O)c1ccc(C)cc1C [2, 4′-Dimethylacetophenone] | – | – | – | Ki [1]: > 100 µM; Ki [2, 9]: > 100 µM; Ki [3]: > 100 µM
8 | CCCCC(CC)CO (stereo not shown) [2-Ethyl-hexanol] | > 100 | > 100 | > 100 | –
9 | CCCCCC(C)=O [2-Heptanone] | > 100 | – | > 100 | Ki [2, 8]: 55.3 ± 4.21 µM; IC50 [2, 5]: 14.6 to 95.1 µM
10 | CCCCCCCCCCCCCC(C)=O [2-Pentadecanone] | > 100 | > 100 | > 100 | –
11 | CC1=CCC2C(C1)C2(C)C (stereo not shown) [3-Carene] | > 100 | > 100 | > 100 | –
12 | CCCC(O)CC (stereo not shown) [3-Hexanol] | > 100 | > 100 | > 100 | –
13 | CC(=O)CCC=C(C)C [6-Methyl-5-hepten-2-one] | – | – | – | Ki [1]: > 100 µM; IC50 [2]: 14.6 to 95.1 µM; Ki [2, 9]: > 100 µM; Ki [3]: > 100 µM
14 | CC1(C)[C@H]2CC[C@]1(C)C(=O)C2 [(1S)-(-)-Camphor] | – | – | – | Ki [2, 8]: 50.8 ± 3.08 µM
15 | CCC/C=C/COC(=O)CCC [(E)-2-Hexenyl butyrate] | > 100 | > 100 | > 100 | –
16 | CC/C=C\CCOC(C)=O [(Z)-3-Hexenyl acetate] | > 100 | > 100 | > 100 | –
17 | CCCCCOC(C)=O [Amyl acetate] | > 100 | > 100 | > 100 | –
18 | O=Cc1ccccc1 [Benzaldehyde] | – | – | – | Ki [1]: > 100 µM; Ki [2, 9]: > 100 µM; Ki [3]: > 100 µM
19 | C=C1CC/C=C(\C)CC[C@@H]2[C@@H]1CC2(C)C [Caryopyllene] | > 100 | > 100 | > 100 | –

Row | Compound | Ki [1, 4] [µM] | Ki [2, 6] [µM] | Ki [3, 7] [µM] | further results
20 | O=C(O)/C=C/c1ccccc1 [Cinnamic acid] | > 100 | – | > 100 | Ki [2, 8]: 75.5 ± 2.29 µM; IC50 [2, 5]: 14.6 to 95.1 µM
21 | CCCCCCCCCC(=O)O [Decanoic acid] | – | – | – | Ki [1]: > 100 µM; IC50 [2]: 14.6 to 95.1 µM; Ki [2, 9]: > 100 µM; Ki [3]: > 100 µM
22 | CCCCCCCCCCCC=O [Dodecyl aldehyde] | > 100 | > 100 | > 100 | –
23 | C=CC(=C)CC/C=C(\C)CCC=C(C)C [E-β-Farnesene] | > 100 | > 100 | > 100 | –
24 | C=CCc1ccc(O)c(OC)c1 [Eugenol] | > 100 | > 100 | > 100 | –
25 | CC(C)=CCC/C(C)=C/CO [Geraniol] | – | – | – | Ki [1]: > 100 µM; IC50 [2]: 14.6 to 95.1 µM; Ki [2, 10]: 39.6 ± 3.01 µM; Ki [3]: > 100 µM
26 | CCCCCCC=O [Heptanal] | > 100 | > 100 | > 100 | –
27 | CCCCCCOC(C)=O [Hexyl acetate] | > 100 | > 100 | > 100 | –
28 | CCCCCCCCCCCC(=O)O [Lauric acid] | > 100 | – | > 100 | Ki [2, 8]: 35.2 ± 1.42 µM
29 | C=CC(C)(O)CCC=C(C)C (stereo not shown) [Linalool] | > 100 | > 100 | > 100 | IC50 [2, 5]: 14.6 to 95.1 µM
30 | CCCCC/C=C\C/C=C\CCCCCCCC(=O)O [Linoleic acid] | > 100 | – | – | IC50 [1]: > 100 µM; Ki [2, 8]: 5.78 ± 0.39 µM; IC50 [2, 5]: 6.7 ± 0.52 µM; Ki [3, 11]: 43.5 ± 2.86 µM; IC50 [3]: 48.5 ± 3.42 µM
31 | COC(=O)c1ccccc1O [Methyl salicylate] | > 100 | – | > 100 | Ki [2, 8]: 60 ± 2.74 µM; IC50 [2, 5]: 14.6 to 95.1 µM
32 | C=CC(=C)CCC=C(C)C [Myrcene] | > 100 | > 100 | > 100 | IC50 [2, 5]: 14.6 to 95.1 µM
33 | CCCCCCCCC=O [Nonanal] | > 100 | > 100 | > 100 | –
34 | C=CC(C)=CCC=C(C)C [Ocimene] | > 100 | > 100 | > 100 | –
35 | CCCCCCCC=O [Octanal] | > 100 | > 100 | > 100 | –
36 | CCCCCCCC(=O)O [Octanoic acid] | > 100 | > 100 | > 100 | IC50 [2, 5]: 14.6 to 95.1 µM
37 | C=C(C)[C@H]1CC=C(C)CC1 [R(+)-Limonene] | > 100 | – | > 100 | Ki [2, 8]: 47.8 ± 1.56 µM
38 | CC(C)=CCC/C(C)=C/CC/C(C)=C/CO [Trans,trans-Farnesol] | > 100 | > 100 | > 100 | –

Row | Compound | Ki [1, 4] [µM] | Ki [2, 6] [µM] | Ki [3, 7] [µM] | further results
39 | CCC/C=C/CO [Trans-2-hexen-1-ol] | > 100 | – | > 100 | Ki [2, 8]: 46.1 ± 1.25 µM; IC50 [2, 5]: 14.6 to 95.1 µM
40 | CCC/C=C/C=O [Trans-2-hexenal] | > 100 | > 100 | > 100 | –
41 | CCCCC=O [Valeraldehyde] | > 100 | > 100 | > 100 | –
42 | CC/C=C\CCO [Z3-Hexen-1-ol] | > 100 | > 100 | > 100 | –
43 | Cc1cccc(C)c1 [m-Xylene] | > 100 | – | > 100 | Ki [2, 8]: 55.5 ± 3.14 µM; IC50 [2, 5]: 14.6 to 95.1 µM
44 | CCCCCCC [n-Heptane] | > 100 | > 100 | > 100 | IC50 [2, 5]: 14.6 to 95.1 µM
45 | CCCCCC=O [n-Hexaldehyde] | > 100 | > 100 | > 100 | –
46 | CCCCCC [n-Hexane] | – | – | – | Ki [1]: > 100 µM; Ki ([2]; BtabCSP1 Ki (u.d.)): > 100 µM; Ki [3]: > 100 µM
47 | CCCCCCCCCCCCCCC [n-Pentadecane] | > 100 | > 100 | > 100 | –
48 | CCCCCCCCCCCCC [n-Tridecane] | > 100 | > 100 | > 100 | –
49 | CCCCCCCCCCC [n-Undecane] | > 100 | > 100 | > 100 | –
50 | CCCCCC(C=O)=Cc1ccccc1 [α-Pentyl-cinnamaldehyde] | – | – | – | Ki ([1]; competitive binding vs 1-NPN, three replicates ± SD, listed as α-pentyl-cinnamaldehyde, read-out: BtabCSP2 Ki): 10.3 µM; Ki ([1]; competitive binding vs 1-NPN, three replicates ± SD, read-out: BtabCSP2 Ki): 10.3 ± 1.17 µM; IC50 [1]: 11.1 µM; Ki [2, 8]: 12.6 ± 1.3 µM; Ki ([3]; competitive binding vs 1-NPN, three replicates ± SD, listed as α-pentyl-cinnamaldehyde, read-out: BtabCSP3 Ki): 5.8 µM; Ki [3, 11]: 5.82 ± 0.31 µM; IC50 [3]: 6.5 µM
51 | CC1=CCC2CC1C2(C)C (stereo not drawn) [α-Pinene] | > 100 | > 100 | > 100 | –
52 | CC1=CC=C(C(C)C)CC1 [α-Terpinene] | > 100 | > 100 | > 100 | IC50 [2, 5]: 14.6 to 95.1 µM
53 | CC1=CC[C@@H](C(C)(C)O)CC1 [α-Terpineol] | > 100 | > 100 | > 100 | IC50 [2, 5]: 14.6 to 95.1 µM
54 | CC(=O)/C=C/C1=C(C)CCCC1(C)C [β-Ionone] | – | – | – | Ki [1]: > 100 µM; IC50 [2]: 14.6 to 95.1 µM; Ki [2, 10]: 32.1 ± 1.48 µM; Ki [3]: > 100 µM
55 | C=C1CCC2CC1C2(C)C (stereo not drawn) [β-Pinene] | > 100 | > 100 | > 100 | –
56 | S(-)-Limonene | > 100 | – | > 100 | Ki [2, 8]: 82.2 ± 3.47 µM
